What was measured:
human α7 nAChR = molecular target: T1, human α7 nAChR (Homo sapiens, UniProt P36544); experiment: Evaluation of PAM activity with human α7 nACh receptor stably expressing cells (aequorin luminescence, FDSS7000); format: cell-based; conditions: ACh at EC20; for α7PAM (%) @ 10 μmol/L: test compound 10 μmol/L, ratio of RLU (Max-Min) of test-compound wells to control wells, human α7 nAChR expressing GH4C1 cells; for PAM activity for α7 nAChR (in words): ratio of RLU (Max-Min) of test wells to control wells
T1 construct: expressed in transfected cells; host or cells: GH4C1 cells (rat pituitary, ATCC CCL-82.2)
T1 sequence (P36544 23-502): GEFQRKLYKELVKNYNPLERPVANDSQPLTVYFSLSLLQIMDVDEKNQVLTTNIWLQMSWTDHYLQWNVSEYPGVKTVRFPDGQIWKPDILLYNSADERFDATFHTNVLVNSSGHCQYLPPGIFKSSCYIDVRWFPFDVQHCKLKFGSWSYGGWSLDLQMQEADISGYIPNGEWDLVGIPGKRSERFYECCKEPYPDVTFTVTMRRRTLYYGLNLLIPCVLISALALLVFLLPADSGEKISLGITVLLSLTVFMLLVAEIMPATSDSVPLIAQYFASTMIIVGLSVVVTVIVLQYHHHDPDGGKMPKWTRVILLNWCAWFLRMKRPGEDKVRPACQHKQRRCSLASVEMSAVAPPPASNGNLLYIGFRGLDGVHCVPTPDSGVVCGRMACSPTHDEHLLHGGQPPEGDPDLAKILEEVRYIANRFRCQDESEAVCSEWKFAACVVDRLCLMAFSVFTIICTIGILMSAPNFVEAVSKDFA
Text: Evaluation of PAM Activity with Human α7 nACh Receptor Stably Expressing Cells
(1) Human α7 nAChR stably expressing cells
Human α7 nAChR stably expressing cells were generated and cultured. In detail, GH4C1 cells derived from rat pituitary (cat#CCL-82.2, ATCC, USA) were used as a host cell. PcDNA3.1Zeo vector containing a nucleotide sequence encoding a protein GenBank BAC81731 and pcDNA3.1 vector containing human α7 nAChR gene (cat#V790-20, invitrogen, Carlsbad, Calif., USA) were transfected to the cells to give aequorins and human α7 nAChR stably expressing cells respectively. The aequorins and human α7 nAChR stably expressing cells were screened with Zeocin (cat#R25001, invitrogen, Carlsbad, Calif., USA) and Geneticin (cat#10131-027, invitrogen, Carlsbad, Calif., USA) respectively.
The cells were cultured in F-10 Nutrient Mixture (Ham) medium (cat#11550-043, invitrogen, Carlsbad, Calif., USA) containing 2.5% fetal bovine serum (cat#2917354, ICN Biomedicals, Inc, USA), 15% inactivated horse serum (cat#26050-088, invitrogen, Carlsbad, Calif., USA), 1 μg/mL Geneticin, and 5 μg/mL Puromycin (cat#14861-84, invitrogen, Carlsbad, Calif., USA), in a Collagen Type 1-coated dish (cat#4030-010, iwaki, Tokyo, Japan). During the culture, the medium was replaced with fresh medium in every 2 to 3 days, and the cells were treated with TrypLE Express (cat#45604-021, invitrogen, Carlsbad, Calif., USA) to collect them in every 7 days. Thus, the cells were subcultured.
7 Days after subculturing, the cells were treated with TrypLE Express to collect them when they were about 80% confluent. The cells were suspended in a reaction medium containing Hanks (cat#14065-056, invitrogen, Carlsbad, Calif., USA)/20 mmol/L Hepes (cat#15630-080, invitrogen, Carlsbad, Calif., USA), Buffer (pH 7.4), F-10 Nutrient Mixture (Ham), and 0.1 mg/mL Geneticin, and the suspension was seeded in a 384-well plate (cat#781090, Greiner, Germany) at 20000 cells/25 μL per well.
On the next day after seeding, Viviren (cat#E649X, Promega, Madison, Wis., USA) was added to the medium so that the final concentration could be 4 μmol/L (15 μL/well). The plates were centrifuged and then placed in the dark for 4 hours at room temperature.
(2) Preparation of the Test Samples
Each of the test compounds was dissolved in DMSO to prepare each test sample at a concentration of 1000-fold the final concentration. To the solution was added Hanks/20 mM HEPES/0.2% BSA (cat#A3803, Sigma, St. Louis, Mo., USA), and the concentration was adjusted to 6-fold the final concentration.
(3) Evaluation of PAM Activity
FDSS7000 (Hamamatsu Photonics) was used to detect the luminescence signal evoked by α7 nAChR stimulation. The cells and a luminescent substrate were put on a plate, and the test sample was added thereto. […] After the addition of ACh, the luminescence signal (the central wavelength: 465 nm) was measured for 138 seconds to calculate RLU (Max-Min). The ratio of the RLU (Max-Min) of the test-compound-containing wells to that of the control wells was defined as PAM activity.

Slc: ddY mice = experiment: Novel object recognition test with mice (mORT); format: in vivo; conditions: 0.3 mg/kg, 1.0 mg/kg or 3 mg/kg
Protocol: Evaluation of Cognitive Function with Mice in Novel Object Recognition Test (Hereinafter, Referred to as “mORT”)
Slc: ddY mice (25 g to 30 g, male, Japan SLC) can be used in the novel object recognition test wherein the interval between the 1st trial (training) and the 2nd trial (test) correlates with the memory loss for the objects used in the 1st trial, and a significant memory-loss is observed when the 2nd trial is performed 24 hours after the 1st trial. According to the test mechanism, the present compounds were administered prior to the 1st trial, and the enhancement effect on memory in the 2nd trial was evaluated.

CCOc1cccc2c1cnn2C1CCN(C(=O)N[C@H]2CC[C@@H](OC)CC2)CC1 [Example 184]
α7PAM (%) @ 10 μmol/L (human α7 nAChR): 200%

CCc1ccc2c(cnn2C2CCN(C(=O)NC3CCCOC3)CC2)c1 (stereo not shown) [Example 22, 4-(5-ethyl-1H-indazol-1-yl)-N-(tetrahydro-2H-pyran-3-yl)piperidine-1-carboxamide]
α7PAM (%) @ 10 μmol/L (human α7 nAChR): 1425%

COCC1CCC(NC(=O)N2CCC(n3ncc4cc(C)ccc43)CC2)CC1 (stereo not shown) [Example 220]
PAM activity for α7 nAChR (in words) (human α7 nAChR): stronger PAM activity than others

COCc1c(C)ccc2c1cnn2C1CCN(C(=O)NC2CCC(F)(F)CC2)CC1 [Example 213]
α7PAM (%) @ 10 μmol/L (human α7 nAChR): 800%

CCc1ccc2c(cnn2C2CCN(C(=O)N[C@H]3CC[C@H](OC)CC3)CC2)c1OC [Example 255, 4-(5-ethyl-4-methoxy-1H-indazol-1-yl)-N-(trans-4-methoxycyclohexyl)piperidine-1-carboxamide]
α7PAM (%) @ 10 μmol/L (human α7 nAChR): 1096%

COC(C)c1c(C)ccc2c1cnn2C1CCN(C(=O)NC2CCC(F)(F)CC2)CC1 (stereo not shown) [Example 232]
α7PAM (%) @ 10 μmol/L (human α7 nAChR): 860%

CCc1ccc2c(cnn2C2CCN(C(=O)NC3CCOCC3)CC2)c1OC [Example 275, 4-(5-ethyl-4-methoxy-1H-indazol-1-yl)-N-(tetrahydro-2H-pyran-4-yl)piperidine-1-carboxamide]
α7PAM (%) @ 10 μmol/L (human α7 nAChR): 1093%

CO[C@H]1CC[C@H](NC(=O)N2CCC(n3ncc4cc(C5CC5)ccc43)CC2)CC1 [Example 74, 4-(5-cyclopropyl-1H-indazol-1-yl)-N-(trans-4-methoxycyclohexyl)piperidine-1-carboxamide]
efficacy at higher doses (Slc: ddY mice): the efficacy did not decrease | α7PAM (%) @ 10 μmol/L (human α7 nAChR): 1226%

CO[C@H]1CC[C@H](NC(=O)N2CCC(n3ncc4cc(C)ccc43)CC2)CC1 [Example 1, N-(trans-4-methoxycyclohexyl)-4-(5-methyl-1H-indazol-1-yl)piperidine-1-carboxamide]
efficacy at higher doses (Slc: ddY mice): the efficacy did not decrease | α7PAM (%) @ 10 μmol/L (human α7 nAChR): 1209%

CCCc1ccc2c(cnn2C2CCN(C(=O)NC3CCOCC3)CC2)c1 [Example 15, 4-(5-propyl-1H-indazol-1-yl)-N-(tetrahydro-2H-pyran-4-yl)piperidine-1-carboxamide]
α7PAM (%) @ 10 μmol/L (human α7 nAChR): 1025%

CCc1ccc2c(cnn2C2CCN(C(=O)NC3CCC(F)(F)CC3)CC2)c1 [Example 23]
PAM activity for α7 nAChR (in words) (human α7 nAChR): stronger PAM activity than others

— US9309221B2, “1-substituted indazole derivative” (Dainippon Sumitomo Pharma Co., Ltd., priority 2012, dated 2016)
